± gives the expanded uncertainty stated by the source.
Experiment: activity coefficient (dimensionless); of the first substance listed, at infinite dilution; xn = mol fraction of the nth substance listed
Conditions: 101.33 kPa, Liquid, Chromatography, x1 = 0

activity coefficient (298.15 K)	activity coefficient (313.15 K)	activity coefficient (328.15 K)	SMILES
7.21 ± 0.49	7.59 ± 0.52	7.98 ± 0.54	CCCCCC [hexane] + CCCCCCCCOS(=O)(=O)[O-].CCCCn1cc[n+](C)c1
0.386 ± 0.033	0.369 ± 0.033	0.36 ± 0.033	CO [methanol] + CCCCCCCCOS(=O)(=O)[O-].CCCCn1cc[n+](C)c1
7.38 ± 0.5	7.53 ± 0.51	7.88 ± 0.54	C=CCCCCCC [oct-1-ene] + CCCCCCCCOS(=O)(=O)[O-].CCCCn1cc[n+](C)c1
9.63 ± 0.66	9.96 ± 0.68	10.3 ± 0.7	CCCCCCCC [octane] + CCCCCCCCOS(=O)(=O)[O-].CCCCn1cc[n+](C)c1
6.63 ± 0.45	7.14 ± 0.49		CCCCC [pentane] + CCCCCCCCOS(=O)(=O)[O-].CCCCn1cc[n+](C)c1

Second part, the compound before the results:

SMILES	activity coefficient (298.15 K)	activity coefficient (313.15 K)	activity coefficient (328.15 K)
C#CCCCCC [1-heptyne] + CCCCCCCCOS(=O)(=O)[O-].CCCCn1cc[n+](C)c1	2.66 ± 0.18	2.85 ± 0.19	3.08 ± 0.21
C#CCCCC [1-hexyne] + CCCCCCCCOS(=O)(=O)[O-].CCCCn1cc[n+](C)c1	2.25 ± 0.15	2.38 ± 0.16	2.56 ± 0.17
C#CCCCCCC [1-octyne] + CCCCCCCCOS(=O)(=O)[O-].CCCCn1cc[n+](C)c1	3.25 ± 0.22	3.42 ± 0.23	3.65 ± 0.25
c1ccccc1 [benzene] + CCCCCCCCOS(=O)(=O)[O-].CCCCn1cc[n+](C)c1	1.42 ± 0.09	1.44 ± 0.09	1.45 ± 0.1
C1CCCCCC1 [cycloheptane] + CCCCCCCCOS(=O)(=O)[O-].CCCCn1cc[n+](C)c1	5.43 ± 0.37	5.52 ± 0.38	5.68 ± 0.39
C1CCCCC1 [cyclohexane] + CCCCCCCCOS(=O)(=O)[O-].CCCCn1cc[n+](C)c1	4.92 ± 0.34	5.02 ± 0.34	5.17 ± 0.35
C1CCCC1 [cyclopentane] + CCCCCCCCOS(=O)(=O)[O-].CCCCn1cc[n+](C)c1	4.09 ± 0.28	4.24 ± 0.29	4.39 ± 0.3
CCCCCCC [heptane] + CCCCCCCCOS(=O)(=O)[O-].CCCCn1cc[n+](C)c1	8.27 ± 0.56	8.58 ± 0.59	9 ± 0.61
C=CCCCC [hex-1-ene] + CCCCCCCCOS(=O)(=O)[O-].CCCCn1cc[n+](C)c1	5.43 ± 0.37	5.76 ± 0.39	6.13 ± 0.42
ClC(Cl)(Cl)Cl [tetrachloromethane] + CCCCCCCCOS(=O)(=O)[O-].CCCCn1cc[n+](C)c1	1.65 ± 0.11	1.74 ± 0.12	1.85 ± 0.12
Cc1ccccc1 [toluene] + CCCCCCCCOS(=O)(=O)[O-].CCCCn1cc[n+](C)c1	1.98 ± 0.13	2.02 ± 0.14	2.08 ± 0.14

— the NIST ThermoML archive (doi:10.1021/je0500375)
